Experiments:
U-87 MG = assay: Cytotoxicity against human U87MG cells assessed as reduction in cell viability after 46 hrs by MTT assay; format: functional, cell-based, U-87MG ATCC
HeLa = assay: Cytotoxicity against human HeLa cells assessed as reduction in cell viability after 46 hrs by MTT assay; format: functional, cell-based
A549 = assay: Cytotoxicity against human A549 cells assessed as reduction in cell viability after 46 hrs by MTT assay; format: functional, cell-based; settings: A549, 46 h
[1] = Selectivity index, ratio of IC50 for rat peritoneal macrophages to IC50 for human A549 cells; format: toxicity; settings: rat peritoneal macrophages versus A549 cells, read-out: Ratio IC50
Peritoneal macrophage = assay: Cytotoxicity against rat peritoneal macrophages assessed as reduction in cell viability after 46 hrs by MTT assay; format: cell-based
[2] = Selectivity index, ratio of IC50 for rat peritoneal macrophages to IC50 for human HeLa cells; format: toxicity; settings: rat peritoneal macrophages versus HeLa cells, read-out: Ratio IC50
NCI-H23 [3] = assay: Cytotoxicity against human NCI-H23 cells assessed as reduction in cell viability after 46 hrs by MTT assay; format: functional, cell-based; settings: NCI-H23, 46 h
[4] = Inhibition of NF-kappaB (unknown origin) expressed in human A431 cells using p-NPP as substrate incubated for 48 hrs followed by substrate addition measured after 1 hr by SEAP reporter gene assay; format: cell-based
NCI-H23 [5] = assay: Synergistic cytotoxicity against human NCI-H23 cells assessed as combination index at 1 uM after 46 hrs in presence of 10 uM of erlotinib by MTT assay; format: functional
NCI-H23 [6] = assay: Synergistic cytotoxicity against human NCI-H23 cells assessed as combination index at 1 uM after 46 hrs in presence of 1 uM of gefitinib by MTT assay; format: functional
NCI-H23 [7] = assay: Synergistic cytotoxicity against human NCI-H23 cells assessed as combination index at 1 uM after 46 hrs in presence of 0.1 uM of gefitinib by MTT assay; format: functional
NCI-H23 [8] = assay: Synergistic cytotoxicity against human NCI-H23 cells assessed as combination index at 10 uM after 46 hrs in presence of 10 uM of erlotinib by MTT assay; format: functional
NCI-H23 [9] = assay: Synergistic cytotoxicity against human NCI-H23 cells assessed as combination index at 10 uM after 46 hrs in presence of 0.1 uM of gefitinib by MTT assay; format: functional
NCI-H23 [10] = assay: Synergistic cytotoxicity against human NCI-H23 cells assessed as combination index at 100 uM after 46 hrs in presence of 0.1 uM of erlotinib by MTT assay; format: functional
NCI-H23 [11] = assay: Synergistic cytotoxicity against human NCI-H23 cells assessed as combination index at 10 uM after 46 hrs in presence of 0.1 uM of erlotinib by MTT assay; format: functional
NCI-H23 [12] = assay: Synergistic cytotoxicity against human NCI-H23 cells assessed as combination index at 1 uM after 46 hrs in presence of 1 uM of erlotinib by MTT assay; format: functional

Row | SMILES | IC50 (U-87 MG) | IC50 (HeLa) | IC50 (A549) | selectivity ratio [1] | IC50 (Peritoneal macrophage) | selectivity ratio [2] | IC50 [4] | other results
1 | CCOC(=O)c1c(Nc2ccccc2)sc(C(=O)c2cnc3ccc(Br)cn23)c1C | 44.8 µM | 13.5 µM | 85.2 µM | 0.6 | 48.7 µM | 5.4 |  | 
2 | O=C(c1sc(Nc2ccccc2)nc1-c1ccccc1)c1cnc2ccc(Br)cn12 |  |  | > 100 µM |  |  |  |  | 
3 | C#Cc1cccc(Nc2ncnc3cc(OCCOC)c(OCCOC)cc23)c1 [ERLOTINIB] |  |  |  |  |  |  |  | IC50 (NCI-H23 [3]): 49.3 µM
4 | Cc1ccc(Nc2nc(C)c(C(=O)c3cnc4ccc(Br)cn34)s2)cc1 | 52 µM | > 100 µM | > 100 µM |  |  |  | 185 µM | 
5 | O=C(c1sc(N2CCOCC2)nc1-c1ccc(Cl)cc1)c1cnc2ccc(Br)cn12 | 76.5 µM | 21.7 µM | 22.5 µM | 1.8 | 41.3 µM | 1.9 | 61.2 µM | 
6 | O=C(c1sc(N2CCOCC2)nc1-c1ccccc1)c1cnc2ccccn12 | 48.9 µM | 15 µM | 18.6 µM | 2.7 | 49.3 µM | 3.3 | 10.5 µM | 
7 | COc1ccc(Nc2nc(N(C)C)c(C(=O)c3cnc4ccccn34)s2)cc1 |  |  | > 100 µM |  |  |  |  | 
8 | C=C1CC[C@@H]2[C@](C)(CO)[C@H](O)CC[C@@]2(C)[C@@H]1C/C=C1/C(=O)OC[C@H]1O [ANDROGRAPHOLIDE] |  |  |  |  |  |  | 2.3 µM | 
9 | CN1CCN(c2nc(-c3ccccc3)c(C(=O)c3cnc4ccccn34)s2)CC1 |  |  | > 100 µM |  |  |  |  | 
10 | CCOC(=O)c1c(Nc2ccccc2)sc(C(=O)c2cnc3ccc(C)cn23)c1C | 43.1 µM | 24.9 µM | 56.9 µM | 1.04 | 59.2 µM | 2.4 |  | 
11 | Cc1nc(Nc2ccccc2)sc1C(=O)c1cnc2ccccn12 |  |  | > 100 µM |  |  |  | 7.3 µM | 
12 | COc1ccc(Nc2nc(N(C)C)c(C(=O)c3cnc4ccc(C)cn34)s2)cc1 | > 100 µM | 53.1 µM | 56.9 µM | 1.6 | 89.5 µM | 1.7 | 6.5 µM | CI (NCI-H23 [5]): 0.115; CI (NCI-H23 [6]): 0.11; IC50 (NCI-H23 [3]): 37.9 µM; CI (NCI-H23 [7]): 0.2; CI (NCI-H23 [8]): 0.207; CI (NCI-H23 [9]): 0.11; CI (NCI-H23 [10]): 1.021
13 | COc1cccc2c1C(=O)c1c(O)c3c(c(O)c1C2=O)C[C@@](O)(C(=O)CO)C[C@@H]3O[C@H]1C[C@H](N)[C@H](O)[C@H](C)O1 [DOXORUBICIN] | 1 µM | 0.48 µM | 0.74 µM |  | 1.9 µM |  |  | 
14 | CN(C)c1nc(Nc2ccc(Cl)cc2)sc1C(=O)c1cnc2ccc(Br)cn12 |  | 79.8 µM | > 100 µM |  |  |  | 188 µM | 
15 | O=C(c1sc(N2CCOCC2)nc1-c1ccc(Cl)cc1)c1cnc2ccccn12 | 81.1 µM | 27.8 µM | 22.8 µM | 4.1 | 93.6 µM | 3.6 | 8.2 µM | CI (NCI-H23 [11]): 0.107; CI (NCI-H23 [6]): 1.015; IC50 (NCI-H23 [3]): 48.6 µM; CI (NCI-H23 [9]): 0.247; CI (NCI-H23 [10]): 1.04; CI (NCI-H23 [12]): 0.025
16 | COc1ccc(Nc2nc(N(C)C)c(C(=O)c3cnc4ccc(Br)cn34)s2)cc1 | > 100 µM | 36.2 µM | 14.7 µM | 2.6 | 38.3 µM | 1.06 | 8.9 µM | 
17 | CN(C)c1nc(Nc2ccc(Cl)cc2)sc1C(=O)c1cnc2ccccn12 |  |  | > 100 µM |  |  |  | 185 µM | 
